{
  "source": "paper PMC5218480",
  "about": "(PLoS ONE, 2017)",
  "tested_on": "MV-4-11 cells",
  "assay": "Gene expression microarray analysis (Affymetrix PrimeView) and GSEA",
  "format": "cell-based, human",
  "design": "RFU PODN (11730768_x_at) / Fold change /veh PODN (11730768_x_at) / RFU LINC00158 (11744669_a_at) / Fold change /veh LINC00158 (11744669_a_at) / RFU DUSP10 (11751237_a_at) / Fold change /veh DUSP10 (11751237_a_at) / RFU ID3 (11757404_x_at) / Fold change /veh ID3 (11757404_x_at) / RFU PLEKHG5 (11737974_s_at) / Fold change /veh PLEKHG5 (11737974_s_at) / RFU LRRC4B (11730491_at) / Fold change /veh LRRC4B (11730491_at) / RFU GIMAP4 (11747438_a_at) / Fold change /veh GIMAP4 (11747438_a_at) / RFU KRT8 (11758183_x_at) / Fold change /veh KRT8 (11758183_x_at) / RFU CNN1 (11734310_a_at) / Fold change /veh CNN1 (11734310_a_at) / RFU VPS37D (11726825_at) / Fold change /veh VPS37D (11726825_at) / RFU C10orf10 (11716522_x_at) / Fold change /veh C10orf10 (11716522_x_at) / RFU KIR2DL2 /// KIR2DL4 /// KIR2DL5A /// KIR2DL5B /// KIR2DS1 /// KIR2DS2 /// KIR2DS3 /// KIR2DS4 /// KIR3DL3 /// KIR3DL3 /// KIR3DS1 (11738374_at) / Fold change /veh KIR2DL2 /// KIR2DL4 /// KIR2DL5A /// KIR2DL5B /// KIR2DS1 /// KIR2DS2 /// KIR2DS3 /// KIR2DS4 /// KIR3DL3 /// KIR3DL3 /// KIR3DS1 (11738374_at) / RFU C1QL1 (11718748_at) / Fold change /veh C1QL1 (11718748_at) / RFU TMPRSS4 (11747572_a_at) / Fold change /veh TMPRSS4 (11747572_a_at) / RFU HAMP (11756126_x_at) / Fold change /veh HAMP (11756126_x_at) / RFU RNFT2 (11725882_a_at) / Fold change /veh RNFT2 (11725882_a_at) / RFU NR4A2 (11747474_a_at) / Fold change /veh NR4A2 (11747474_a_at) / RFU ABCC12 (11746883_a_at) / Fold change /veh ABCC12 (11746883_a_at) / RFU TMEM136 (11760407_x_at) / Fold change /veh TMEM136 (11760407_x_at) / RFU CLDN22 /// WWC2 (11732394_at) / Fold change /veh CLDN22 /// WWC2 (11732394_at) / RFU HLA-DPB1 (11760878_x_at) / Fold change /veh HLA-DPB1 (11760878_x_at) / RFU SPINT1 (11716480_a_at) / Fold change /veh SPINT1 (11716480_a_at) / RFU GAP43 (11754022_s_at) / Fold change /veh GAP43 (11754022_s_at) / RFU A4GNT (11735810_at) / Fold change /veh A4GNT (11735810_at) / RFU PRB3 (11715151_x_at) / Fold change /veh PRB3 (11715151_x_at) / RFU TUBB4B (11761932_at) / Fold change /veh TUBB4B (11761932_at) / RFU CAPN14 (11732068_a_at) / Fold change /veh CAPN14 (11732068_a_at) / RFU TMCC2 (11721928_a_at) / Fold change /veh TMCC2 (11721928_a_at) / RFU IRGQ (11745062_a_at) / Fold change /veh IRGQ (11745062_a_at) / RFU FAM174B (11720279_a_at) / Fold change /veh FAM174B (11720279_a_at) / RFU TMPRSS4 (11748680_a_at) / Fold change /veh TMPRSS4 (11748680_a_at) / RFU FAM212B (11763350_a_at) / Fold change /veh FAM212B (11763350_a_at) / RFU PLEKHG5 (11743358_a_at) / Fold change /veh PLEKHG5 (11743358_a_at) / RFU ZSCAN30 (11745921_a_at) / Fold change /veh ZSCAN30 (11745921_a_at) / RFU CMKLR1 (11741424_a_at) / Fold change /veh CMKLR1 (11741424_a_at) / RFU LOC101060620 /// MAPK8IP1 (11723275_at) / Fold change /veh LOC101060620 /// MAPK8IP1 (11723275_at) / RFU SPTSSB (11747773_x_at) / Fold change /veh SPTSSB (11747773_x_at) / RFU PRSS12 (11739890_at) / Fold change /veh PRSS12 (11739890_at) / RFU BIN1 (11741810_x_at) / Fold change /veh BIN1 (11741810_x_at) / RFU WNT11 (11732464_a_at) / Fold change /veh WNT11 (11732464_a_at) / RFU C10orf10 (11716521_a_at) / Fold change /veh C10orf10 (11716521_a_at) / RFU C5orf56 (11738089_at) / Fold change /veh C5orf56 (11738089_at) / RFU CYB561 (11721691_x_at) / Fold change /veh CYB561 (11721691_x_at) / RFU ANKRD19P (11752326_a_at) / Fold change /veh ANKRD19P (11752326_a_at) / RFU OR2T12 /// OR2T33 /// OR2T8 (11738714_s_at) / Fold change /veh OR2T12 /// OR2T33 /// OR2T8 (11738714_s_at) / RFU VCAN (11748164_a_at) / Fold change /veh VCAN (11748164_a_at) / RFU JSRP1 (11732532_at) / Fold change /veh JSRP1 (11732532_at) / RFU KRTAP10-11 (11738290_x_at) / Fold change /veh KRTAP10-11 (11738290_x_at) / RFU MYO3A (11730013_a_at) / Fold change /veh MYO3A (11730013_a_at) / RFU EBF3 (11725865_a_at) / Fold change /veh EBF3 (11725865_a_at) / RFU CAMK2N1 (11719241_x_at) / Fold change /veh CAMK2N1 (11719241_x_at) / RFU C5orf56 (11738088_a_at) / Fold change /veh C5orf56 (11738088_a_at) / RFU OLFML3 (11715873_a_at) / Fold change /veh OLFML3 (11715873_a_at) / RFU LOC100653217 /// NTM (11731650_a_at) / Fold change /veh LOC100653217 /// NTM (11731650_a_at) / RFU MAPK11 (11762145_a_at) / Fold change /veh MAPK11 (11762145_a_at) / RFU FIZ1 (11724087_x_at) / Fold change /veh FIZ1 (11724087_x_at) / RFU OASL (11726364_x_at) / Fold change /veh OASL (11726364_x_at) / RFU SOX15 (11748057_x_at) / Fold change /veh SOX15 (11748057_x_at) / RFU CD79A (11719716_a_at) / Fold change /veh CD79A (11719716_a_at) / RFU HIST1H1D (11736915_at) / Fold change /veh HIST1H1D (11736915_at) / RFU CASKIN2 (11723855_a_at) / Fold change /veh CASKIN2 (11723855_a_at) / RFU LOC730098 (11760151_x_at) / Fold change /veh LOC730098 (11760151_x_at) / RFU OR4N2 (11742367_at) / Fold change /veh OR4N2 (11742367_at) / RFU PRRT2 (11749266_a_at) / Fold change /veh PRRT2 (11749266_a_at) / RFU SNX32 (11753110_a_at) / Fold change /veh SNX32 (11753110_a_at) / RFU CDHR5 (11726645_a_at) / Fold change /veh CDHR5 (11726645_a_at) / RFU RCAN1 (11760418_a_at) / Fold change /veh RCAN1 (11760418_a_at) / RFU FAM167A (11723789_a_at) / Fold change /veh FAM167A (11723789_a_at) / RFU FAM26E (11764081_at) / Fold change /veh FAM26E (11764081_at) / RFU ISYNA1 (11749810_s_at) / Fold change /veh ISYNA1 (11749810_s_at) / RFU ACY1 (11761880_at) / Fold change /veh ACY1 (11761880_at) / RFU 11764098_at / Fold change /veh 11764098_at / RFU SAMD14 (11745864_x_at) / Fold change /veh SAMD14 (11745864_x_at) / RFU NPB (11741838_a_at) / Fold change /veh NPB (11741838_a_at) / RFU TMPRSS6 (11731388_a_at) / Fold change /veh TMPRSS6 (11731388_a_at) / RFU KRTAP10-2 (11738614_at) / Fold change /veh KRTAP10-2 (11738614_at) / RFU ARHGAP8 /// PRR5-ARHGAP8 (11727945_x_at) / Fold change /veh ARHGAP8 /// PRR5-ARHGAP8 (11727945_x_at) / RFU KRTAP5-7 /// NADSYN1 (11734609_at) / Fold change /veh KRTAP5-7 /// NADSYN1 (11734609_at) / RFU RASL12 (11751679_a_at) / Fold change /veh RASL12 (11751679_a_at) / RFU CDKN2B (11736163_a_at) / Fold change /veh CDKN2B (11736163_a_at) / RFU PRF1 (11729649_at) / Fold change /veh PRF1 (11729649_at) / RFU, ZNF638 /// ZNF638-IT1 / Fold change vs veh, ZNF638 /// ZNF638-IT1 / RFU, PANK3 / Fold change vs veh, PANK3 / RFU, SH3YL1 / Fold change vs veh, SH3YL1 / RFU, ZEB2 / Fold change vs veh, ZEB2 / RFU, NRIP1 / Fold change vs veh, NRIP1 / RFU, PTTG1IP / Fold change vs veh, PTTG1IP / RFU, CAPN2 / Fold change vs veh, CAPN2 / RFU, MED14 / Fold change vs veh, MED14 / RFU, SNORA58 / Fold change vs veh, SNORA58 / RFU, C1orf63 / Fold change vs veh, C1orf63 / RFU, LRRFIP1 / Fold change vs veh, LRRFIP1 / RFU, NDUFAF7 / Fold change vs veh, NDUFAF7 / RFU, SLC12A2 / Fold change vs veh, SLC12A2 / RFU, IBTK / Fold change vs veh, IBTK / RFU, ESF1 / Fold change vs veh, ESF1 / Fold change vs veh, TMEM50B / RFU, TAOK1 / Fold change vs veh, TAOK1 / RFU, ACBD3 / Fold change vs veh, ACBD3 / RFU, TMA16 / Fold change vs veh, TMA16 / RFU, RWDD3 / Fold change vs veh, RWDD3 / RFU, BCAT1 / Fold change vs veh, BCAT1 / RFU, EDEM3 / Fold change vs veh, EDEM3 / RFU, TMEM33 / Fold change vs veh, TMEM33 / RFU, WDR75 / Fold change vs veh, WDR75 / RFU, AHCTF1 / Fold change vs veh, AHCTF1 / RFU, TFRC / Fold change vs veh, TFRC / RFU, ZDHHC17 / Fold change vs veh, ZDHHC17 / RFU, NOM1 / Fold change vs veh, NOM1 / RFU, ARL8B / Fold change vs veh, ARL8B / RFU, ZBTB11 / Fold change vs veh, ZBTB11 / RFU, TAMM41 / Fold change vs veh, TAMM41 / RFU, KIAA1704 /// LOC100996395 / Fold change vs veh, KIAA1704 /// LOC100996395 / RFU, ING1 / Fold change vs veh, ING1 / RFU, TRMT61B / Fold change vs veh, TRMT61B / RFU, FUBP3 / Fold change vs veh, FUBP3 / RFU, TP53 / Fold change vs veh, TP53 / RFU, TNKS2 / Fold change vs veh, TNKS2 / RFU, ZFP14 / Fold change vs veh, ZFP14 / RFU, ACTR2 / Fold change vs veh, ACTR2 / RFU, PPP3R1 / Fold change vs veh, PPP3R1 / RFU, PIK3R1 / Fold change vs veh, PIK3R1 / RFU, HNRNPA1 / Fold change vs veh, HNRNPA1 / RFU, RNF170 / Fold change vs veh, RNF170 / RFU, ZNF28 / Fold change vs veh, ZNF28 / RFU, RNGTT / Fold change vs veh, RNGTT / RFU, OGT / Fold change vs veh, OGT / RFU, BRD1 / Fold change vs veh, BRD1 / RFU, MARS / Fold change vs veh, MARS / RFU, ZNF655 / Fold change vs veh, ZNF655 / RFU, FAHD1 / Fold change vs veh, FAHD1 / RFU, BDP1 / Fold change vs veh, BDP1 / RFU, LRRCC1 / Fold change vs veh, LRRCC1 / RFU, ARID1A / Fold change vs veh, ARID1A / RFU, ZNF146 / Fold change vs veh, ZNF146 / RFU, ZNF330 / Fold change vs veh, ZNF330 / RFU, GPN3 / Fold change vs veh, GPN3 / RFU, C9orf123 / Fold change vs veh, C9orf123 / RFU, N4BP2L2 / Fold change vs veh, N4BP2L2 / RFU, ARFIP1 / Fold change vs veh, ARFIP1 / RFU, FAM179B / Fold change vs veh, FAM179B / RFU, BCL10 / Fold change vs veh, BCL10 / RFU, UHRF1BP1L / Fold change vs veh, UHRF1BP1L / RFU, BET1 / Fold change vs veh, BET1 / RFU, CNOT2 / Fold change vs veh, CNOT2 / RFU, ZNF268 / Fold change vs veh, ZNF268 / Fold change vs veh, ZNF507 / RFU, DGCR2 / Fold change vs veh, DGCR2 / RFU, WDSUB1 / Fold change vs veh, WDSUB1 / Fold change vs veh, HSP90B1 /// MIR3652 / RFU, ADSS / Fold change vs veh, ADSS / RFU, GK / Fold change vs veh, GK / RFU, ZNF148 / Fold change vs veh, ZNF148 / RFU, TAF9 / Fold change vs veh, TAF9 / RFU, SLC1A5 / Fold change vs veh, SLC1A5 / RFU, SLMO2 / Fold change vs veh, SLMO2 / RFU, ABCC4 / Fold change vs veh, ABCC4 / RFU, LOC101060439 /// RAP1B / Fold change vs veh, LOC101060439 /// RAP1B / RFU, RFX7 / Fold change vs veh, RFX7 / RFU, GTPBP10 / Fold change vs veh, GTPBP10 / RFU, CNEP1R1 / Fold change vs veh, CNEP1R1 / RFU, BIVM-ERCC5 /// ERCC5 / Fold change vs veh, BIVM-ERCC5 /// ERCC5 / RFU, ILF3 / Fold change vs veh, ILF3 / RFU 11762660_at / Fold change /veh 11762660_at / RFU VCAN (11757783_s_at) / Fold change /veh VCAN (11757783_s_at) / RFU DDX43 (11728927_at) / Fold change /veh DDX43 (11728927_at) / RFU KRT8 (11758188_x_at) / Fold change /veh KRT8 (11758188_x_at) / RFU NKD1 (11759106_at) / Fold change /veh NKD1 (11759106_at) / RFU SRD5A1 (11742802_a_at) / Fold change /veh SRD5A1 (11742802_a_at) / RFU TPSAB1 /// TPSB2 (11721975_s_at) / Fold change /veh TPSAB1 /// TPSB2 (11721975_s_at) / RFU GSTM3 (11746129_a_at) / Fold change /veh GSTM3 (11746129_a_at) / RFU IL23R (11737362_x_at) / Fold change /veh IL23R (11737362_x_at) / RFU TMEM51 (11727254_a_at) / Fold change /veh TMEM51 (11727254_a_at) / RFU PIWIL2 (11732686_x_at) / Fold change /veh PIWIL2 (11732686_x_at) / RFU ORM1 (11744905_x_at) / Fold change /veh ORM1 (11744905_x_at) / RFU CCDC152 (11743942_at) / Fold change /veh CCDC152 (11743942_at) / RFU ECM1 (11717891_a_at) / Fold change /veh ECM1 (11717891_a_at) / RFU IL23R (11748794_a_at) / Fold change /veh IL23R (11748794_a_at) / RFU TNFAIP8L3 (11732012_x_at) / Fold change /veh TNFAIP8L3 (11732012_x_at) / RFU MBOAT4 (11741988_at) / Fold change /veh MBOAT4 (11741988_at) / RFU 11764193_at / Fold change /veh 11764193_at / RFU TMEM53 (11763286_at) / Fold change /veh TMEM53 (11763286_at) / RFU MAGEB2 (11727129_at) / Fold change /veh MAGEB2 (11727129_at) / RFU TMEM200A (11744735_a_at) / Fold change /veh TMEM200A (11744735_a_at) / RFU CCDC152 (11751479_a_at) / Fold change /veh CCDC152 (11751479_a_at) / RFU FAM211A (11726209_a_at) / Fold change /veh FAM211A (11726209_a_at) / RFU RGS16 (11746705_a_at) / Fold change /veh RGS16 (11746705_a_at) / RFU VCAN (11755009_s_at) / Fold change /veh VCAN (11755009_s_at) / RFU RHOB (11743442_s_at) / Fold change /veh RHOB (11743442_s_at) / RFU RGS16 (11720943_a_at) / Fold change /veh RGS16 (11720943_a_at) / RFU RGS16 (11720944_at) / Fold change /veh RGS16 (11720944_at) / RFU, VPS4B / Fold change vs veh, VPS4B / RFU, CREB1 / Fold change vs veh, CREB1 / RFU, DNAJC13 / Fold change vs veh, DNAJC13 / RFU, GNAQ / Fold change vs veh, GNAQ / RFU, CDK5R1 / Fold change vs veh, CDK5R1 / RFU, ZRANB3 / Fold change vs veh, ZRANB3 / RFU, CUL4A / Fold change vs veh, CUL4A / RFU, CCNY / Fold change vs veh, CCNY / RFU, UFL1 / Fold change vs veh, UFL1 / RFU, COG3 / Fold change vs veh, COG3 / RFU, DIAPH2 / Fold change vs veh, DIAPH2 / RFU, SKA2 / Fold change vs veh, SKA2 / RFU, AFF3 / Fold change vs veh, AFF3 / RFU, LMF1 / Fold change vs veh, LMF1 / RFU, IPO11 / Fold change vs veh, IPO11 / RFU, DFFB / Fold change vs veh, DFFB / RFU, FOXP1 / Fold change vs veh, FOXP1 / RFU, CARD8 / Fold change vs veh, CARD8 / RFU, STRN3 / Fold change vs veh, STRN3 / RFU, ADK / Fold change vs veh, ADK / RFU, RASSF2 / Fold change vs veh, RASSF2 / RFU, WIPF1 / Fold change vs veh, WIPF1 / RFU, LARP1B / Fold change vs veh, LARP1B / RFU, RASA1 / Fold change vs veh, RASA1 / RFU, RB1 / Fold change vs veh, RB1 / RFU, PPFIA1 / Fold change vs veh, PPFIA1 / RFU, MAT2A / Fold change vs veh, MAT2A / RFU, CCT5 / Fold change vs veh, CCT5 / RFU, WDR92 / Fold change vs veh, WDR92 / RFU, CUX1 / Fold change vs veh, CUX1 / RFU, TTC7A / Fold change vs veh, TTC7A / RFU, TMEM135 / Fold change vs veh, TMEM135 / RFU, DEPTOR / Fold change vs veh, DEPTOR / RFU, CPM / Fold change vs veh, CPM / RFU, DNAJB6 / Fold change vs veh, DNAJB6 / RFU, CACNA2D3 / Fold change vs veh, CACNA2D3 / RFU, DTX4 / Fold change vs veh, DTX4 / RFU, TFCP2 / Fold change vs veh, TFCP2 / RFU, GMCL1 /// GMCL1P1 / Fold change vs veh, GMCL1 /// GMCL1P1 / RFU, AEBP2 / Fold change vs veh, AEBP2 / RFU, SNHG1 /// SNORD22 /// SNORD25 /// SNORD26 /// SNORD27 /// SNORD28 /// SNORD29 /// SNORD31 / Fold change vs veh, SNHG1 /// SNORD22 /// SNORD25 /// SNORD26 /// SNORD27 /// SNORD28 /// SNORD29 /// SNORD31 / Fold change (Aza/veh), C12orf56 (ProbeSet 11735607_a_at) / Fold change (ACY-1035/veh), C12orf56 (ProbeSet 11735607_a_at) / Fold change (Aza/veh), FGFR1OP (ProbeSet 11751329_s_at) / Fold change (ACY-1035/veh), FGFR1OP (ProbeSet 11751329_s_at) / Fold change (Aza/veh), VPS36 (ProbeSet 11739960_a_at) / Fold change (ACY-1035/veh), VPS36 (ProbeSet 11739960_a_at) / RFU SYPL1 (11715823_x_at) / Fold change /veh SYPL1 (11715823_x_at) / RFU IGFBP7 (11715501_s_at) / Fold change /veh IGFBP7 (11715501_s_at) / RFU REEP3 (11722064_at) / Fold change /veh REEP3 (11722064_at) / RFU IGLL1 (11728026_x_at) / Fold change /veh IGLL1 (11728026_x_at): dose or concentration left out as unconfirmed",
  "conditions": "MV-4-11 cells, 48 hours",
  "data": [
    {"compound": "Nc1ccc(-c2cccs2)cc1NC(=O)c1ccc2c(c1)cc(C1CC1)n2CCN1CCOCC1", "note": "[ACY-1035]", "values": [
      {"measurement": "RFU FAM211A (11726209_a_at)", "value": 5.89, "unit": "RFU"}
    ]}
  ]
}
